{"source": "ChEMBL document CHEMBL1201862", "about": "“PubChem BioAssay data set” (2004)", "key": {"[1]": {"test": "HEK-293T viability loss after treatment – luminescence, T-cell screen hits, cytotoxicity control for TCR NF-kB inhibitor project, dose response (AID 489026);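 note: cells exposed to compound about 14 hours before the viability readout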", "assay_type": "functional, cell-based"}, "HEK293 [2]": {"tested_on": "HEK293", "test": "cells", "details": "Homo sapiens"}, "HEK293 [3]": {"tested_on": "HEK293", "test": "cells", "details": "Homo sapiens", "remark": "listed apart in the source"}, "J774.A1": {"tested_on": "J774.A1", "test": "Confirmation of image-based Screening Assay for Inhibitors of Phagocytosis. [Related pubchem assays (depositor defined):AID1029, AID1643]", "assay_type": "functional, cell-based", "details": "Mus musculus"}, "[4]": {"test": "cytotoxicity in LOX IMVI melanoma cells – cell-based, CellTiter-Glo ATP luminescence, 8/24/48 h, dry powder, HRAS target identification, dose response (AID 720602)", "assay_type": "functional"}, "[5]": {"test": "DRD BJ cell killing, Ras synthetic lethality – DRD BJ fibroblasts, HRASV12, dry powder, dose response (AID 493049)", "assay_type": "functional, cell-based"}, "[6]": {"test": "BJeHLT cell viability loss – BJeHLT cells, dry powder, counter-screen for Ras selective lethality project, dose response (AID 493052)", "assay_type": "functional, cell-based", "details": "Homo sapiens"}, "INS1": {"tested_on": "INS1", "test": "INS-1E survival protection against cytokine death – cell-based, luminescence, retest, dose response (AID 449756);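 note: cell death triggered by IL-1 beta plus TNF-alpha plus IFN-gamma mixture; protective hits raise ATP signal compared with cytokine alone wells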", "assay_type": "functional", "details": "Rattus norvegicus"}, "Fatty acid synthase [7]": {"target": "T1, Fatty acid synthase (Homo sapiens, UniProt P49327)", "T1 sequence (P49327 whole entry)": "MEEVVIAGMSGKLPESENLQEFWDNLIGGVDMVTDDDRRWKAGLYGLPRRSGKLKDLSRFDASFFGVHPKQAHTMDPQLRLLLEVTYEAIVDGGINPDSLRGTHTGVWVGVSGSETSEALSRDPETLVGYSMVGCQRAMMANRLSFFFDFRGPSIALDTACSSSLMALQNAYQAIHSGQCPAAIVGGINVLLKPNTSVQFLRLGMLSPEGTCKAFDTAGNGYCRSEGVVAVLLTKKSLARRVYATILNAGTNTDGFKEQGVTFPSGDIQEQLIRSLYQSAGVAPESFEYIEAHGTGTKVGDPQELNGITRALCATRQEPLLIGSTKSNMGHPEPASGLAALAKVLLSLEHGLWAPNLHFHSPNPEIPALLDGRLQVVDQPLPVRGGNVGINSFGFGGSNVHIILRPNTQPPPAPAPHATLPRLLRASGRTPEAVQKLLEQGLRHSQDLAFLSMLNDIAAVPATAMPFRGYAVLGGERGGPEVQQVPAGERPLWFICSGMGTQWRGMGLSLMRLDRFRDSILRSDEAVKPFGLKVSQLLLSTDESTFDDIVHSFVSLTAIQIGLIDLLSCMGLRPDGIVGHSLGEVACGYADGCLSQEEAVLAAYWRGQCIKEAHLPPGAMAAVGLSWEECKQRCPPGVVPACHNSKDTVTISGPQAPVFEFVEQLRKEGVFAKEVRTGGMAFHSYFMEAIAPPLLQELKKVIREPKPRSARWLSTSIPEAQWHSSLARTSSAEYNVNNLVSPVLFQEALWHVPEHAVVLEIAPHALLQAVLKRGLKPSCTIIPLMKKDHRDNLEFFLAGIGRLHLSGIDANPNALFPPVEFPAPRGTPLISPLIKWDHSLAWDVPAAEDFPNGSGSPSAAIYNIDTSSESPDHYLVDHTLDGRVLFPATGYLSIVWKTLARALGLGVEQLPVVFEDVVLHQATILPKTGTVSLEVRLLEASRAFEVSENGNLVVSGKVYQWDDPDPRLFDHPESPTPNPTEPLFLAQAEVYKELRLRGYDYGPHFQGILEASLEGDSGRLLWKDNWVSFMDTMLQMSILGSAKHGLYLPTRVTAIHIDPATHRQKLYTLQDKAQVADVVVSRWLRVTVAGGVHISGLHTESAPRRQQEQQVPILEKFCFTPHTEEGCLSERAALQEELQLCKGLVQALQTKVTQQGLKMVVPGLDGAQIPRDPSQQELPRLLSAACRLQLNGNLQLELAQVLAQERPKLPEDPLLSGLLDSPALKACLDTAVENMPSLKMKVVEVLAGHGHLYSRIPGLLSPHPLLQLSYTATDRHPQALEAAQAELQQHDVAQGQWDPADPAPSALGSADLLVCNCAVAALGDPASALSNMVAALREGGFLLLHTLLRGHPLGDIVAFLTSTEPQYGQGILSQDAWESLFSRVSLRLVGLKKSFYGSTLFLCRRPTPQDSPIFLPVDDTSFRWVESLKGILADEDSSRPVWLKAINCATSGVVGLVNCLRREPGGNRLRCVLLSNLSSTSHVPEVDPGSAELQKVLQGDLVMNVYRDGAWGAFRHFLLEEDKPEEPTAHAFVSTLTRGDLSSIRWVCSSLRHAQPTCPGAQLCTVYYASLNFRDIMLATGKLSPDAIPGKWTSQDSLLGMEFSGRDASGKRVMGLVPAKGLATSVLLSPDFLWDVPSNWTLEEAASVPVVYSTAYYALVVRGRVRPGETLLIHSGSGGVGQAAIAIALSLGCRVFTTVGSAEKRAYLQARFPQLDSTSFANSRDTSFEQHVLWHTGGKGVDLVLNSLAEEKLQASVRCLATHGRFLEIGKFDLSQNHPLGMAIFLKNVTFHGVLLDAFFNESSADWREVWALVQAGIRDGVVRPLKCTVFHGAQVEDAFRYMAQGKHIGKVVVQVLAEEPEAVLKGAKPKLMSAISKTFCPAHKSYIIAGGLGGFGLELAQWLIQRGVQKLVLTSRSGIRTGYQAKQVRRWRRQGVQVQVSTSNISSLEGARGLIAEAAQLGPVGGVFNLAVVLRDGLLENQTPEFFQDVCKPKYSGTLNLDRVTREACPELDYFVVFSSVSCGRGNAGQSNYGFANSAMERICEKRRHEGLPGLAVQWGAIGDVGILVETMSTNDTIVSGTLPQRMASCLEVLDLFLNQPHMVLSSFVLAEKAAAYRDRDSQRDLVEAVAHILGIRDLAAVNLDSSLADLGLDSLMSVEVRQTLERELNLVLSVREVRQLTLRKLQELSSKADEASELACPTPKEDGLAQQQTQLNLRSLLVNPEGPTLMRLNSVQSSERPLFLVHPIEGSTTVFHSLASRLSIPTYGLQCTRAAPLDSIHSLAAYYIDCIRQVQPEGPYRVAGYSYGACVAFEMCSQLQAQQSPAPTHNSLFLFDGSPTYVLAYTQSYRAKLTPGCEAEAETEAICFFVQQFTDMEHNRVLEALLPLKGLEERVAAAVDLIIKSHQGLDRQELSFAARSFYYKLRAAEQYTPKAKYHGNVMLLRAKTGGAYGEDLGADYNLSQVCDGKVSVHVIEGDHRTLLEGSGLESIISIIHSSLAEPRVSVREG", "test": "inhibition of human FAS-TE enzyme activity – biochemical, endpoint fluorescence intensity, uHTS hits, dose response (AID 624327);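 note: fluorescence from hydrolysis of an O-methyl fluorescein acyl ester substrate by the enzyme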", "assay_type": "functional"}, "[8]": {"test": "viability of PTEN-deleted HCT116 cells – cell-based, HCT116 PTEN knockout, dose response (AID 1047);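 note: HCT116 colon tumor cells with PTEN knocked out; cells exposed to compound for 60 hours before readout; potency for loss of cell viability measured by luminescence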", "assay_type": "functional"}, "[9]": {"test": "BJeH cell viability loss – BJeH cells, dry powder, counter-screen for Ras selective lethality project, dose response (AID 493054)", "assay_type": "functional, cell-based"}, "[10]": {"test": "cytotoxicity in CCRF-CEM lymphoblastic leukemia cells – cell-based, CellTiter-Glo ATP luminescence, 8/24/48 h, dry powder, HRAS target identification, dose response (AID 720607)", "assay_type": "functional"}, "[11]": {"test": "viability of HCT116 lacking mutant beta-catenin – cell-based, human colon tumor, dose response (AID 1045);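 note: HCT116 colon tumor cells with beta catenin knocked out; cells exposed to compound for 60 hours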", "assay_type": "functional"}, "Paired box protein Pax-8": {"target": "Paired box protein Pax-8 (Homo sapiens, UniProt Q06710)", "sequence (Q06710 whole entry)": "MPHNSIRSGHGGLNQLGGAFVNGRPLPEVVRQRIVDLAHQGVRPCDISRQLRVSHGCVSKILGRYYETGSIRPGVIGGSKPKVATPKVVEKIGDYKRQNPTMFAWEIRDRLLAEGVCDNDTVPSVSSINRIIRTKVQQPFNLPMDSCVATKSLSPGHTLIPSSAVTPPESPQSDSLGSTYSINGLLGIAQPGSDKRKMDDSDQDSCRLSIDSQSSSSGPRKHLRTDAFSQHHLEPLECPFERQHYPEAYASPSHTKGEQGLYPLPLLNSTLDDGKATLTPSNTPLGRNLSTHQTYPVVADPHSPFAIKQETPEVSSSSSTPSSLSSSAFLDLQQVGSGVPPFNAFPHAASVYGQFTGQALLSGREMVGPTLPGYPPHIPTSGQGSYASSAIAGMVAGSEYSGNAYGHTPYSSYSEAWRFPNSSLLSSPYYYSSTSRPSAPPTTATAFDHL", "test": "PAX8 transcriptional activity inhibition in RMG-I – RMG-I cells, luciferase, cherry-pick, dose response (AID 687027);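 note: luciferase reporter driven by Pax8 target thyroperoxidase promoter measured by SteadyGlo luminescence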", "assay_type": "functional, cell-based"}, "Fatty acid synthase [12]": {"target": "T1, Fatty acid synthase", "test": "inhibition of human FAS-TE enzyme activity – biochemical, kinetic fluorescence intensity, dose response (AID 624326);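 note: rate of fluorescence rise from hydrolysis of a fluorogenic O-methyl fluorescein ester substrate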", "assay_type": "functional"}, "Protein RecA": {"target": "T2, Protein RecA (Mycobacterium tuberculosis, UniProt P9WHJ3)", "T2 sequence (P9WHJ3 whole entry)": "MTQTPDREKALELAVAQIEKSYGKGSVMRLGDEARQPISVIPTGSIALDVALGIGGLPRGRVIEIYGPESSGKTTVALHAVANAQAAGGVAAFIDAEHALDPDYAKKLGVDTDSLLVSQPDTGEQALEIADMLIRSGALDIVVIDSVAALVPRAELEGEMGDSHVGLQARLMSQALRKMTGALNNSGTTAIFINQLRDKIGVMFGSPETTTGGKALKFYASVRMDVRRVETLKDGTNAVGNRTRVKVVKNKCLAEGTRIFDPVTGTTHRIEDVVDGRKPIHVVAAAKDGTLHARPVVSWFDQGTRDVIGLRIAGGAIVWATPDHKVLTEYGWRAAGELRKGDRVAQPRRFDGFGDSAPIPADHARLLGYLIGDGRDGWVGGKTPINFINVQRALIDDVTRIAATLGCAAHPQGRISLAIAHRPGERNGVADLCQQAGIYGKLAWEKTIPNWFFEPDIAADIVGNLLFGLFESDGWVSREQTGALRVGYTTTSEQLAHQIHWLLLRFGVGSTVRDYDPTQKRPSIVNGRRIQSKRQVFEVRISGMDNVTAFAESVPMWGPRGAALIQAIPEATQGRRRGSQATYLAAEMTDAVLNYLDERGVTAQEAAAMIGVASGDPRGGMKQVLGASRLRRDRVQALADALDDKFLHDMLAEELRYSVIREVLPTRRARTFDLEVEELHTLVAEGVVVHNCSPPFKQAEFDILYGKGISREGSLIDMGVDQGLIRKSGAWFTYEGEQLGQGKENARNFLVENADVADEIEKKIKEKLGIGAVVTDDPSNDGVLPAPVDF", "test": "Fluorescence Cell-Free Homogeneous Dose Retest to Identify Inhibitors of RecA-Intein Splicing Activity. [Related pubchem assays (depositor defined):AID2097, AID2223, AID489010, AID492950]", "assay_type": "functional"}, "[13]": {"test": "HRAS-V12 fibroblast viability reduction – cell-based, Alamar Blue, dry powder, Ras selective lethality project, primary screen (AID 493045)", "assay_type": "functional", "details": "BJeLR"}, "[14]": {"test": "cytotoxicity in HeLa cervical cancer cells – cell-based, CellTiter-Glo ATP luminescence, 8-48 h, dry powder, mechanism study for HRAS target identification, late-stage follow-up (AID 720609)", "assay_type": "functional"}, "Melanocortin receptor 4": {"target": "Melanocortin receptor 4 (Homo sapiens, UniProt P32245)", "sequence (P32245 whole entry)": "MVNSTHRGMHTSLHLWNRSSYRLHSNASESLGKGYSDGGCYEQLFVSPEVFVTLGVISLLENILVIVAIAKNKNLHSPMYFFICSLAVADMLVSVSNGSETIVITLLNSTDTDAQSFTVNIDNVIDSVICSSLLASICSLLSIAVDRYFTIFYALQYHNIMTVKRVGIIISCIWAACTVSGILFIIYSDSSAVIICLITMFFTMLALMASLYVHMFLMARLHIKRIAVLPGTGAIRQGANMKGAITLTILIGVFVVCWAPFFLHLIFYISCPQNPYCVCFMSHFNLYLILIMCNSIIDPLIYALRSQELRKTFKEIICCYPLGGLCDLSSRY", "test": "inhibitors of MC4R cAMP signaling – cell-based, TR-FRET, biased antagonists, dose response (AID 602298);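 note: antagonist potency against agonist-stimulated cAMP production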", "assay_type": "functional"}, "[15]": {"test": "cytotoxicity in SR immunoblastic lymphoma cells – cell-based, CellTiter-Glo ATP luminescence, 8-48 h, dry powder, mechanism study for HRAS target identification, late-stage follow-up (AID 720608)", "assay_type": "functional"}, "[16]": {"test": "time-course viability loss in HT-29 cells – cell-based, CellTiter-Glo, multiple timepoints, dry powder, HRas target identification project, dose response (AID 720598)", "assay_type": "functional"}, "[17]": {"test": "general cell-killing toxicity readout – plate reader, dry powder samples, cytotoxicity control for PAX8 inhibitor project, dose response (AID 743021)", "assay_type": "functional, cell-based"}, "[18]": {"test": "cytotoxicity in primary human umbilical endothelium – cell-based, CellTiter-Glo ATP luminescence, 8/24/48 h, dry powder, cytotoxicity control for HRAS target identification, dose response (AID 720604)", "assay_type": "functional", "details": "HUVEC"}, "[19]": {"test": "cytotoxicity in SNB-19 cells – cell-based, CellTiter-Glo ATP luminescence, 8-48 h, dry powder, mechanism study for HRAS target identification, late-stage follow-up (AID 720611)", "assay_type": "functional"}, "[20]": {"test": "cytotoxicity in mouse C2C12 myoblasts – cell-based, CellTiter-Glo ATP luminescence, 8/24/48 h, dry powder, cytotoxicity control for HRAS target identification, dose response (AID 720603)", "assay_type": "functional"}, "BJ": {"tested_on": "BJ", "test": "growth inhibition of engineered Ras-driven BJ cells – cell-based, alamar blue fluorescence, cherrypicked samples, dose response (AID 2631);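 note: confirmatory dose-response assay in RAS-dependent BJ fibroblasts engineered with TERT, LT and ST, with cytotoxicity read by fluorescence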", "assay_type": "functional", "details": "Homo sapiens"}, "[21]": {"target": "T3, Replicative DNA helicase DnaB (Mycobacterium tuberculosis, UniProt P9WMR3)", "T3 sequence (P9WMR3 whole entry)": "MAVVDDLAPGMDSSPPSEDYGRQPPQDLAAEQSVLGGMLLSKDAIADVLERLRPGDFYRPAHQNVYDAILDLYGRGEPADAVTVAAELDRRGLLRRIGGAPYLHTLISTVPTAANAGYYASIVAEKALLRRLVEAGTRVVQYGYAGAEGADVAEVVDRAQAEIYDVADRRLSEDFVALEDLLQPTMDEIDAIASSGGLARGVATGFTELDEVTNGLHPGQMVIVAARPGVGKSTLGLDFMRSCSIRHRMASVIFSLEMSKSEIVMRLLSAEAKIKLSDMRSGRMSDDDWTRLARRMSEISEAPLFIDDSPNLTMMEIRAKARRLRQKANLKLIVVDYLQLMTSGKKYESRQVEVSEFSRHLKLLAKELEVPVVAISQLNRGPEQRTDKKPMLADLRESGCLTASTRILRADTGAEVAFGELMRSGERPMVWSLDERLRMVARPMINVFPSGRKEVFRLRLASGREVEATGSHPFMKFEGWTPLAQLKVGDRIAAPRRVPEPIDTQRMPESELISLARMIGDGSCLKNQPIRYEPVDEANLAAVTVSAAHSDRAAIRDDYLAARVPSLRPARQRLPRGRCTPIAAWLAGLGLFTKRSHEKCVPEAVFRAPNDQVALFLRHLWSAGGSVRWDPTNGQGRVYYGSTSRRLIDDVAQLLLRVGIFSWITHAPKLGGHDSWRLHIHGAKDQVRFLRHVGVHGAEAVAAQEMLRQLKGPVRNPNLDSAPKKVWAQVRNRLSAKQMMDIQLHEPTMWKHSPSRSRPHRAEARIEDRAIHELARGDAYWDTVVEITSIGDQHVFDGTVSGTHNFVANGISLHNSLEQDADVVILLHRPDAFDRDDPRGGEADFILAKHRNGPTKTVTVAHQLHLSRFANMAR", "test": "DnaB intein splicing inhibitors, dose response, biochemical, cell-free fluorescence (AID 449749)", "assay_type": "functional"}, "[22]": {"test": "cytotoxicity in U-251 CNS tumor cells – cell-based, Alamar Blue fluorescence, 8/24/48 h, dry powder, HRAS target identification, dose response (AID 720605)", "assay_type": "functional"}, "[23]": {"test": "cytotoxicity in U-251 glioma cells – cell-based, CellTiter-Glo ATP luminescence, several timepoints, dry powder, mechanism study for HRAS target identification, late-stage follow-up (AID 720616)", "assay_type": "functional"}, "[24]": {"test": "cAMP pathway inhibition in counterscreen cell line – TR-FRET cAMP detection, counter-screen for MC4R biased antagonist project, dose response (AID 602305);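 note: U2OS cells stimulated with forskolin near its EC80 as the cAMP inducer; potency is for inhibition of forskolin-stimulated cAMP signaling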", "assay_type": "functional, cell-based"}}, "note": "Active and inactive are the calls of the source. Unless noted, no cut-off for these calls is given here."}
{"smiles": "Cc1ccc(C(=O)Nc2ncc(Cc3ccc(SC(F)F)cc3)s2)cc1", "values": [{"measurement": "IC50", "setting": "[1]", "result": "> 80000 nM (inactive)"}, {"measurement": "EC50", "setting": "HEK293 [2]", "result": "> 59700 nM (inactive)"}, {"measurement": "EC50", "setting": "HEK293 [3]", "result": "> 59700 nM (inactive)"}, {"measurement": "IC50", "setting": "J774.A1", "result": "1750 nM (active)"}]}
{"smiles": "COc1ccc(N(C(=O)CCl)C(C(=O)NCCc2ccccc2)c2cccs2)cc1Cl", "note": "(stereo not given)", "values": [{"measurement": "AC50", "setting": "[4]", "result": "56.3 nM (active)"}, {"measurement": "AC50", "setting": "[5]", "result": "232 nM (active)"}, {"measurement": "AC50", "setting": "[6]", "result": "847 nM (active)"}, {"measurement": "AC50", "setting": "INS1", "result": "2820 nM (active)"}, {"measurement": "IC50", "setting": "Fatty acid synthase [7]", "result": "10200 nM (active)"}, {"measurement": "EC50", "setting": "[8]", "result": "1480 nM (active)"}, {"measurement": "AC50", "setting": "[9]", "result": "760 nM (active)"}, {"measurement": "AC50", "setting": "[10]", "result": "133 nM (active)"}, {"measurement": "EC50", "setting": "[11]", "result": "765 nM (active)"}, {"measurement": "AC50", "setting": "Paired box protein Pax-8", "result": "323 nM (active)"}, {"measurement": "IC50", "setting": "Fatty acid synthase [12]", "result": "10600 nM (active)"}, {"measurement": "EC50", "setting": "Protein RecA", "result": "240 nM (active)"}, {"measurement": "AC50", "setting": "[13]", "result": "249 nM (active)"}, {"measurement": "AC50", "setting": "[14]", "result": "582 nM (active)"}, {"measurement": "IC50", "setting": "Melanocortin receptor 4", "result": "> 64600 nM (inactive)"}, {"measurement": "AC50", "setting": "[15]", "result": "69.4 nM (active)"}, {"measurement": "AC50", "setting": "[16]", "result": "296 nM (active)"}, {"measurement": "AC50", "setting": "[17]", "result": "2160 nM (active)"}, {"measurement": "AC50", "setting": "[18]", "result": "12000 nM (active)"}, {"measurement": "AC50", "setting": "[19]", "result": "1180 nM (active)"}, {"measurement": "AC50", "setting": "[20]", "result": "6070 nM (active)"}, {"measurement": "EC50", "setting": "BJ", "result": "167 nM (active)"}, {"measurement": "AC50", "setting": "[21]", "result": "1820 nM (active)"}, {"measurement": "AC50", "setting": "[22]", "result": "57.2 nM (active)"}, {"measurement": "AC50", "setting": "[23]", "result": "941 nM (active)"}, {"measurement": "IC50", "setting": "[24]", "result": "> 64600 nM (inactive)"}]}
